In patent publication US8119681B2, “2-[1-phenyl-5-hydroxy or methoxy-4alpha-methyl-hexahydrocyclopenta [ƒ]indazole-5-YL]ethyl phenyl derivatives as glucocorticoid receptor ligands” (Merck Sharp & Dohme Corp., priority 2006, dated 2012):

biological target: T1, glucocorticoid receptor (GR) (Homo sapiens, UniProt P04150); assay: Ligand binding assay (GR BIND), 3H-dexamethasone displacement, HeLa cell lysate; details: Table 1; HeLa cell lysate, 3H-DEX
T1 construct: endogenous in cells; host or cells: HeLa (ATCC) cell lysate supernatant
T1 sequence (P04150 1-777): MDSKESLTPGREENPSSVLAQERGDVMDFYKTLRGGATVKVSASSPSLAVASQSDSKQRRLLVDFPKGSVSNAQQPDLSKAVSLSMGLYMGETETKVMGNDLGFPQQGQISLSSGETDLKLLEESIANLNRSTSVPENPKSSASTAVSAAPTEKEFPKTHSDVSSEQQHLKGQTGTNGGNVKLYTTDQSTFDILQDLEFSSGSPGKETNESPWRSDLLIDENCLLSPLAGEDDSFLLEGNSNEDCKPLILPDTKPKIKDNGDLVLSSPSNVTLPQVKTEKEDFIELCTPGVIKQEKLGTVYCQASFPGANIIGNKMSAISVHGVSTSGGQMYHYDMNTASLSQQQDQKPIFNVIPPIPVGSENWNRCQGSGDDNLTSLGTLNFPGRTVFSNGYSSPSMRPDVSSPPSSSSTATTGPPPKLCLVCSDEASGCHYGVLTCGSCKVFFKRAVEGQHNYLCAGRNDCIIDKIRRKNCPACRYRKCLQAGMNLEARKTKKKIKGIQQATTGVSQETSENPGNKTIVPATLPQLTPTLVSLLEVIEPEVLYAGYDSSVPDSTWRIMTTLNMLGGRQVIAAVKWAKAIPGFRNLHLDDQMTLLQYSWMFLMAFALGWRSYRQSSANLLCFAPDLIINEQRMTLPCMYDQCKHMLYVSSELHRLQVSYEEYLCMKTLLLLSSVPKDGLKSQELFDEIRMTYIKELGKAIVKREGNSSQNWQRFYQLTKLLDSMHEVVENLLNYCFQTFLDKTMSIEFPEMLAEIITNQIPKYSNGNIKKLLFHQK
Description: Binding Buffer: TEGM (10 mM Tris-HCl, 1 mM EDTA, 10% glycerol, 1 mM beta-mercaptoethanol, 10 mM Sodium Molybdate, pH 7.2)
50% HAP Slurry: Calbiochem Hydroxylapatite, Fast Flow, in 10 mM Tris, pH 8.0 and 1 mM EDTA.
Wash Buffer: 40 mM Tris, pH7.5, 100 mM KCl, 1 mM EDTA and 1 mM EGTA.
Dexmethasone-methyl-^3H, (DEX*); (Amersham cat# TRK645)
Dexamethasone (DEX) (Sigma, cat# D1756):
Phenol red-free Trypsin-EDTA is diluted in the same PBS 1:10. The cell layers are rinsed with 1× Trypsin, extra Trypsin is poured out, and the cell layers are incubated at 37° C. for ˜2 min. The flask is tapped and checked for signs of cell detachment. Once the cells begin to slide off the flask, the complete media is added. The cells are counted at this point, then diluted to the appropriate concentration and split into flasks or dishes for further culturing (Usually 1:3 to 1:6 dilution).
Preparation of Hela Cell Lysate
The cell pellet is washed twice with TEGM (10 mM Tris-HCl, 1 mM EDTA, 10% glycerol, 1 mM beta-mercaptoethanol, 10 mM Sodium Molybdate, pH 7.2). After the final wash, the cells are resuspended in TEGM at a concentration of 10^7 cells/mL. The cell suspension is snap frozen in liquid nitrogen or ethanol/dry ice bath and transferred to −80° C. freezer on dry ice. Before setting up the binding assay, the frozen samples are left on ice-water to just thaw (˜1 hr). Then the samples are centrifuged at 12,500 g to 20,000 g for 30 min at 4° C. The supernatant is used to set-up assay right away. If using 50 μL of supernatant, the test compound can be prepared in 50 μL of the TEGM buffer.
Procedure for Multiple Compound Screening
1×TEGM buffer is prepared, and the isotope-containing assay mixture is prepared in the following order: EtOH (2% final concentration in reaction), 3H-DEX (Amersham Biosciences) and 1×TEGM. [e.g. For 100 samples, 200 μL (100×2) of EtOH+4.25 μL of 1:10 ^3H-Dex stock+2300 μL (100×23) 1×TEGM]. The compound is serially diluted, e.g., if starting final conc. is 1 μM, and the compound is in 25 μL of solution, for duplicate samples, 75 μL of 4×1 μM solution is made and 3 μL of 100 μM is added to 72 μL of buffer, and 1:5 serial dilution.
25 μL of ^3H-DEX (6 nM) trace and 25 μL compound solution are first mixed together, followed by addition of 50 μL receptor solution. The reaction is gently mixed, spun briefly at about 200 rpm and incubated at 4° C. overnight. 100 μL of 50% HAP slurry is prepared and added to the incubated reaction which is then vortexed and incubated on ice for 5 to 10 minutes. The reaction mixture is vortexed twice more to resuspend HAP while incubating reaction. The samples in 96-well format are then washed in wash buffer using The FilterMate™ Universal Harvester plate washer (Packard). The washing process transfers HAP pellet containing ligand-bound expressed receptor to Unifilter-96 GF/B filter plate (Packard). The HAP pellet on the filter plate is incubated with 50 μL of MICROSCINT (Packard) scintillant for 30 minutes before being counted on the TopCount microscintillation counter (Packard). IC50s are calculated using DEX as a reference.

Compound | Ki [pM]
CC(C)(C)NC(=O)c1c(F)cccc1CC[C@]1(O)CCC2=Cc3c(cnn3-c3ccc(F)cc3)C[C@@]21C [Example 59, N-(tert-butyl)-2-fluoro-6-{2-[(4αS,5R)-1-(4-fluorophenyl)-5-hydroxy-4α-methyl-1,4,4α,5,6,7-hexahydrocyclopenta[f]indazol-5-yl]ethyl}benzamide] | 1830
CC(C)CNC(=O)c1c(F)cccc1CC[C@]1(O)CCC2=Cc3c(cnn3-c3ccc(F)cc3)C[C@@]21C [Example 61, 2-fluoro-6-{2-[(4αS,5R)-1-(4-fluorophenyl)-5-hydroxy-4α-methyl-1,4,4α,5,6,7-hexahydrocyclopenta[f]indazol-5-yl]ethyl}-N-isobutylbenzamide] | 580
CC(C)(C)NC(=O)c1ccccc1CC[C@]1(O)CCC2=Cc3c(cnn3-c3ccc(F)cc3)C[C@@]21C [Example 62, N-(tert-butyl)-2-{2-[(4αS,5R)-1-(4-fluorophenyl)-5-hydroxy-4α-methyl-1,4,4α,5,6,7-hexahydrocyclopenta[f]indazol-5-yl]ethyl}benzamide] | 9580
CC(C)S(=O)(=O)NCc1c(F)cccc1CC[C@]1(O)CCC2=Cc3c(cnn3-c3ccc(F)cc3)C[C@@]21C [Example 83, N-(2-fluoro-6-{2-[(4αS,5R)-1-(4-fluorophenyl)-5-hydroxy-4α-methyl-1,4,4α,5,6,7-hexahydrocyclopenta[f]indazol-5-yl]ethyl}benzyl)propane-2-sulfonamide] | 560
CCS(=O)(=O)NCc1c(F)cccc1CC[C@]1(O)CCC2=Cc3c(cnn3-c3ccc(F)cc3)C[C@@]21C [Example 84, N-(2-fluoro-6-{2-[(4αS,5R)-1-(4-fluorophenyl)-5-hydroxy-4α-methyl-1,4,4α,5,6,7-hexahydrocyclopenta[f]indazol-5-yl]ethyl}benzyl)ethanesulfonamide] | 620
C[C@]12Cc3cnn(-c4ccc(F)cc4)c3C=C1CC[C@@]2(O)CCc1cccc(F)c1CNS(=O)(=O)C(Cl)Cl [Example 85, 1,1-dichloro-N-(2-fluoro-6-{2-[(4αS,5R)-1-(4-fluorophenyl)-5-hydroxy-4α-methyl-1,4,4α,5,6,7-hexahydrocyclopenta[f]indazol-5-yl]ethyl}benzyl)methanesulfonamide] | 310
C[C@]12Cc3cnn(-c4ccc(F)cc4)c3C=C1CC[C@@]2(O)CCc1cccc(F)c1CNS(=O)(=O)CC(F)(F)F [Example 86, 2,2,2-trifluoro-N-(2-fluoro-6-{2-[(4αS,5R)-1-(4-fluorophenyl)-5-hydroxy-4α-methyl-1,4,4α,5,6,7-hexahydrocyclopenta[f]indazol-5-yl]ethyl}benzyl)ethanesulfonamide] | 510
C[C@]12Cc3cnn(-c4ccc(F)cc4)c3C=C1CC[C@@]2(O)CCc1cccc(F)c1CNS(=O)(=O)C1CC1 [Example 88, N-(2-fluoro-6-{2-[(4αS,5R)-1-(4-fluorophenyl)-5-hydroxy-4α-methyl-1,4,4α,5,6,7-hexahydrocyclopenta[f]indazol-5-yl]ethyl}benzyl)cyclopropanesulfonamide] | 570
CN(C)S(=O)(=O)NCc1c(F)cccc1CC[C@]1(O)CCC2=Cc3c(cnn3-c3ccc(F)cc3)C[C@@]21C [Example 89, N′-(2-fluoro-6-{2-[(4αS,5R)-1-(4-fluorophenyl)-5-hydroxy-4α-methyl-1,4,4α,5,6,7-hexahydrocyclopenta[f]indazol-5-yl]ethyl}benzyl)-N,N-dimethylsulfamide] | 400
C[C@]12Cc3cnn(-c4ccc(F)cc4)c3C=C1CC[C@@]2(O)CCc1ccccc1C1(NS(=O)(=O)C2CC2)CC1 [Example 91, N-[1-(2-{2-[(4αS,5R)-1-(4-fluorophenyl)-5-hydroxy-4α-methyl-1,4,4α,5,6,7-hexahydrocyclopenta[f]indazol-5-yl]ethyl}phenyl)cyclopropyl]cyclopropanesulfonamide] | 260
C[C@]12Cc3cnn(-c4ccc(F)cc4)c3C=C1CC[C@@]2(O)CCc1ccccc1CC(N)=O [Example 107, 2-(2-{2-[(4αS,5R)-1-(4-fluorophenyl)-5-hydroxy-4α-methyl-1,4,4α,5,6,7-hexahydrocyclopenta[f]indazol-5-yl]ethyl}phenyl)acetamide] | 2320
CN(C)S(=O)(=O)Nc1c(F)cccc1CC[C@]1(O)CCC2=Cc3c(cnn3-c3ccc(F)cc3)C[C@@]21C [Example 113, N′-(2-fluoro-6-{2-[(4αS,5R)-1-(4-fluorophenyl)-5-hydroxy-4α-methyl-1,4,4α,5,6,7-hexahydrocyclopenta[f]indazol-5-yl]ethyl}phenyl)-N,N-dimethylsulfamide] | 2660
CCS(=O)(=O)Nc1ccccc1CC[C@]1(O)CCC2=Cc3c(cnn3-c3ccc(F)cc3)C[C@@]21C [Example 114, N-(2-{2-[(4αS,5R)-1-(4-fluorophenyl)-5-hydroxy-4α-methyl-1,4,4α,5,6,7-hexahydrocyclopenta[f]indazol-5-yl]ethyl}phenyl)ethanesulfonamide] | 2770
CN(C)S(=O)(=O)c1ccccc1CC[C@]1(O)CCC2=Cc3c(cnn3-c3ccc(F)cc3)C[C@@]21C [Example 138, 2-{2-[(4αS,5R)-1-(4-fluorophenyl)-5-hydroxy-4α-methyl-1,4,4α,5,6,7-hexahydrocyclopenta[f]indazol-5-yl]ethyl}-N,N-dimethylbenzenesulfonamide] | 840
CCS(=O)(=O)c1ccccc1CC[C@]1(O)CCC2=Cc3c(cnn3-c3ccc(F)cc3)C[C@@]21C [Example 143, (4αS,5R)-5-{2-[2-(ethylsulfonyl)phenyl]ethyl}-1-(4-fluorophenyl)-4α-methyl-1,4,4α,5,6,7-hexahydrocyclopenta[f]indazol-5-ol] | 1440
C[C@]12Cc3cnn(-c4ccc(F)cc4)c3C=C1CC[C@@]2(O)CCc1ccccc1S(=O)(=O)C1CC1 [Example 144, (4αS,5R)-5-{2-[2-(cyclopropylsulfonyl)phenyl]ethyl}-1-(4-fluorophenyl)-4α-methyl-1,4,4α,5,6,7-hexahydrocyclopenta[f]indazol-5-ol] | 1320
C[C@]12Cc3cnn(-c4ccc(F)cc4)c3C=C1CC[C@@]2(O)CCc1cccc(F)c1CO [Example 148, (4αS,5R)-5-{2-[3-fluoro-2-(hydroxymethyl)phenyl]ethyl}-1-(4-fluorophenyl)-4α-methyl-1,4,4α,5,6,7-hexahydrocyclopenta[f]indazol-5-ol] | 670

same assay, conditions: Table 2; prior-art comparison compounds

Compound | Ki [pM]
C[C@]12Cc3cnn(-c4ccc(F)cc4)c3C=C1CC[C@@]2(O)CCc1ccccc1F [Example 70 WO 2004/075840 A2, reference compound] | 2950
